According to ChEMBL document CHEMBL1131849, “Synthesis and biological characterization of sqbazide, a novel biotinylated photoaffinity probe for the study of the human platelet thromboxane A2 receptor” (Bioorg Med Chem Lett, 1999):
Activity calls are given as the source filed them. No cut-off for these calls is given here.

How the values were obtained:
[1] = species on record: Homo sapiens; assay: Inhibitory activity against human platelet aggregation.; type: functional, organism-based
[2] = species on record: Homo sapiens; assay: Tested for inhibition of platelet aggregation induced by A-23187; Inactive; type: functional, organism-based
[3] = target: T1, Thromboxane A2 receptor (Homo sapiens, UniProt P21731); assay: Binding affinity to human platelet TXA2 receptors as ability to displace binding [3H]SQ-29,548
T1 sequence (P21731 whole entry): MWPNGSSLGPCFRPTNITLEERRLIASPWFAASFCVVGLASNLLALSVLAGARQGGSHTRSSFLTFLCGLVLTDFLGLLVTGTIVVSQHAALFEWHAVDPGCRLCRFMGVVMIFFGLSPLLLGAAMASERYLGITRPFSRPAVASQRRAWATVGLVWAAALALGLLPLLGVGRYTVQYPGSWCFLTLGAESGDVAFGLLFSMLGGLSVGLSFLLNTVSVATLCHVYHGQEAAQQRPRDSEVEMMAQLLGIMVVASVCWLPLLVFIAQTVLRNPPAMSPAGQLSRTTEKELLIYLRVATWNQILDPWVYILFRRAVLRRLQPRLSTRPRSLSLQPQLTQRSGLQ

[4] = species on record: Homo sapiens; assay: Tested for inhibition of platelet aggregation induced by ADP; Inactive; type: functional, organism-based

IC50 [1]: 500 nM
Ki [3]: 625 nM
Structure (SMILES): [N-]=[N+]=Nc1ccc(CCCC(=O)NCC(=O)NCC2C3CCC(O3)C2C/C=C\CCCC(=O)NNC(=O)CCCC[C@H]2SC[C@H]3NC(=O)N[C@H]32)cc1 (some centres undefined)
Activity [2]: inactive
Activity [4]: inactive
